Measurements: US9040567B2, “BAX agonist, compositions, and methods related thereto” (Emory University, priority 2011, dated 2015)
Like-named read-outs stand apart in the source and are kept apart here.

Legend:
[1] = tested on: A549 human lung cancer cells; test: sulforhodamine B (SRB) assay, surviving cell fraction; type: cell-based
BAX Ser184 = test: BAX phosphorylation in H157 cells transfected with WT, S184A or S184E BAX; type: cell-based, human; conditions: H157 cells expressing WT, 60 min
Description: (§1) (A) A549 cells expressing endogenous BAX were metabolically labeled with ^32P-orthophosphoric acid and treated with nicotine for 60 min. BAX was immunoprecipitated by using an agarose-conjugated BAX antibody. Phosphorylation of BAX was determined by autoradiography. […] (C) A549 cells were treated with cisplatin (40 μM) in the absence or presence of nicotine (1 μM) for various times as indicated. Cell viability was analyzed for Annexin-V and PI binding by flow cytometry. […] Cells were metabolically labeled with ^32P-orthophosphoric acid and treated with nicotine for 60 min. Phosphorylated GFP-tagged BAX was analyzed by autoradiography. […] After 48 h, cells were treated with cisplatin (Cis) in the absence or presence of nicotine for 24 h. Cell viability was analyzed as in (C).
(§2) To test whether BAX phosphorylation occurs in human lung cancer cells, A549 cells were metabolically labeled and treated with nicotine (1 μM) for 60 min. […] To test whether nicotine induces BAX phosphorylation at ser184, WT, S184A or S184E cDNA in the pcDNA3 mammalian expression vector was transfected into H157 cells.

A549 cells [2] = tested on: A549 cells
BAX = target: T1, BAX (Homo sapiens, UniProt Q07812); test: BAX phosphorylation in 32P-labeled A549 cells (autoradiography); type: cell-based; conditions: nicotine 1 μM, 60 min
T1 construct: A549 cells expressing endogenous BAX were metabolically labeled; endogenous in cells; host or cells: A549 cells
Description: as §1, §2

[3] = tested on: A549 lung cancer xenografts; test: TUNEL assay of apoptosis in xenograft tumor tissues; conditions: 50 mg/kg for 24 h
Description: Apoptosis in tumor tissues was measured by TUNEL assay.
Apoptosis in tumor tissues was analyzed by TUNEL assay.

[4] = tested on: primary normal small airway epithelial cells (SAEC); test: apoptosis by ApoAlert Annexin-V kit in normal small airway epithelial cells; conditions: 1 μM, 48 h
Description: (§3) (B) H1299, A549 or SAEC cells were treated with various types of small molecules (1 μM) for 48 h. Cell viability was assessed using ApoAlert Annexin-V kit. DMSO or cisplatin (40 μM) was used as a negative or positive control, respectively.

A549 cells [5] = test: apoptosis by ApoAlert Annexin-V kit in A549 cells; conditions: 1 μM, 48 h
Description: as §3

[6] = tested on: A549 lung cancer xenografts; test: A549 subcutaneous lung tumor xenografts in nude mice
Description: At day 6, tumors were removed and photographed. […] Tumor volume was estimated by caliper measurements, data are mean±s.e.m. […] Apoptosis in tumor tissues was measured by TUNEL assay.

H1299 cells = test: apoptosis by ApoAlert Annexin-V kit in H1299 cells; conditions: 1 μM, 48 h
Description: as §3

[7] = A549 cells, 48 h, SRB assay, read-out: IC50

T1 sequence (Q07812 whole entry): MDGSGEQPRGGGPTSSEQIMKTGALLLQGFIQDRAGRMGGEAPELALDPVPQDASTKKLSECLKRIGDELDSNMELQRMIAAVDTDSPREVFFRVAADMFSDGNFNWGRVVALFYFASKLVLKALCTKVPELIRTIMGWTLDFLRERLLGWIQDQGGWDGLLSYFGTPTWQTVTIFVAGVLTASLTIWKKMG

## CC(=O)N1CCN(CCOc2ccccc2C=C2c3ccccc3-c3ccc([N+](=O)[O-])cc32)CC1 [CYD-2-17, 1-(4-{2-[2-(2-Nitro-fluoren-9-ylidenemethyl)-phenoxy]-ethyl}-piperazin-1-yl)-ethanone]
[1]; [7]
  IC50: 5.08 µM

## CN1CCCC1c1cccnc1 (stereo not drawn) [nicotine]
BAX Ser184
  phosphorylation of WT and mutant BAX: induces phosphorylation of WT but not S184A or S184E mutant BAX
A549 cells [2]; cisplatin 40 μM, nicotine 1 μM
  survival of A549 cells following cisplatin treatment: significantly prolongs survival of A549 cells
BAX
  BAX phosphorylation: potently stimulates serine phosphorylation of BAX

## NCCOc1ccccc1C=C1c2ccccc2-c2ccc([N+](=O)[O-])cc21 [CYD-2-11, 2-[2-(2-Nitro-fluoren-9-ylidenemethyl)-phenoxy]-ethylamine]
[1]; [7]
  IC50: 1.93 µM

## O=[N+]([O-])c1ccc2c(c1)C(=Cc1ccccc1OC1CCNCC1)c1ccccc1-2 [CYD-2-13, 4-[2-(2-Nitro-fluoren-9-ylidenemethyl)-phenoxy]-piperidine]
[1]; [7]
  IC50: 5.91 µM

## O=[N+]([O-])c1ccc2c(c1)C(=Cc1ccccc1O)c1ccccc1-2 [SMBA1]
[3]
  apoptosis in tumor tissues (TUNEL): resulted in apoptosis in tumor tissues
A549 cells [2]; combination with cisplatin
  apoptotic cell death in combination with cisplatin: enhances apoptotic cell death
[4]
  apoptotic effect on normal cells compared to H1299 or A549 cells: significantly less apoptotic effect
A549 cells [5]
  apoptotic effect: potent apoptotic effect
[6]; 25, 50 or 75 mg/kg i.p. q.d. for two weeks
  tolerability of treatment doses: well tolerated
[6]; 25, 50 or 75 mg/kg i.p. q.d. for two weeks, preliminary results
  effect on established tumor xenografts (tumor volume): significant regression of established lung cancer xenografts
[6]; doses of 50-75 mg/kg
  toxicities on liver, kidney and heart: well tolerated without significant toxicities on liver, kidney and heart
H1299 cells
  apoptotic effect: potent apoptotic effect

## NCCOc1ncccc1C=C1c2ccccc2-c2ccc([N+](=O)[O-])cc21 [CYD-4-61, 2-[3-(2-Nitro-fluoren-9-ylidenemethyl)-pyridin-2-yloxy]-ethylamine]
[1]; A549, 48 h
  IC50: 0.026 µM
